Test results from patent US20030171361A1, “Pyrrolopyrimidinone derivatives, process of preparation and use” (priority 2002, published 2003).

What was measured:
rabbit platelet PDE V = rabbit platelet PDE V (Oryctolagus cuniculus, UniProt G1SX67); experiment: inhibition of cGMP PDE V activity (PDE SPA assay kit, [3H]-cGMP); format: biochemical; details: in vitro, inhibitors of cGMP PDE V; rabbit platelet enzyme, 30° C., 30 min
Description: The rabbit platelet PDE V was prepared using the method described by Hidaka et al.(Biochim. Biophys. Acta., 429: 485-497, 1976) with minor modification. The platelet-rich plasma (PRP) was prepared by centrifugation of freshly obtained heparinized whole blood at 360 g. Platelets were isolated from the PRP by centrifugation at 1,200 g. Platelet homogenates were prepared in the homogenization buffer (50 mM Tris-HCl buffer containing 1 mM MgCl2, pH 7.4) by sonication for 30 s per 1 mL. The homogenized solutions were then centrifuged at 40,000×g for 2 h at 4° C. The supernatant was loaded on the DEAE-cellulose column (20 mL bed volume, Sigma) pre-equilibrated with equilibration buffer (50 mM Tris-acetate containing 3.75 mM 2-mercaptoethanol, pH 6.0).The column was then washed with 60 mL of equilibration buffer. The PDE isozymes were eluted using a continuous gradient of 0 to 600 mM sodium acetate in the equilibration buffer (60 mL total volume). The 1.0 mL fractions were collected. A flow rate of 60 mL/h was used throughout the ion-exchange chromatography procedure. PDE activities on cAMP and cGMP were characterized as described below. The characterized fractions were pooled and stored at −80 ° C. until the inhibition studies
The cyclic nucleotide PDE V activity was determined using PDE SPA assay kit (Amersham Pharmacia biotech, UK).Each reaction mixture (100 μL total volume) consisted of the column elute containing PDE V (10 μL), [^3H]-cGMP (5 μCi/mL), bovine serum albumin (0.5 mg/mL), and MgCl2 (5 mM) in Tris-HCl buffer (15 mM, pH 7.5).The reactions were initiated by the addition of PDE V and the samples were incubated at 30° C. for 30 min, after which the reaction was stopped by the addition of 50 μL of SPA beads. The reaction tube was then settled for 20 min and was counted on the scintillation counter (Tri-carb 1500, Packard, USA). For the inhibition study of PDE V activity, the test compounds were dissolved in dimethyl sulfoxide (DMSO) and was diluted with distilled water. The final concentration of DMSO was less than 0.2% (v/v).All the inhibition experiments were conducted tinder the conditions where the level of cGMP hydrolysis (lid not exceed 15%, and the product formation increased linearly with time and the amount of enzyme.
The following Table illustrates the in vitro activities for a range of the compounds of the invention as inhibitors of cGMP PDE V.

| IC50 (rabbit platelet PDE V) | melting point | Structure (SMILES) |
| --- | --- | --- |
| 2.9 nM | 220.5 to 221 °C | CCCc1cn(C)c2c(=O)[nH]c(-c3cc(S(=O)(=O)N4CCN(C)CC4)ccc3OCC)nc12 [Example 1, 52-(2-ethoxy-5-(4-methylpiperazinylpiperazin-1-ylsulfonyl)phenyl)-15-methyl-37-n-propyl-1,63,5-dihydro-7H4H-pyrrolo[4,33,2-d]pyrimidin-74-one] |
| 0.59 nM | 183 to 183.5 °C | CCCOc1ccc(S(=O)(=O)N2CCN(C)CC2)cc1-c1nc2c(CCC)cn(C)c2c(=O)[nH]1 [Example 3, 52-(5-(4-methylpiperazinylpiperazin-1-ylsulfonyl)-2-n-propoxyphenyl)-15-methyl-37-n-propyl-1,63,5-dihydro-7H4H-pyrrolo[4,33,2-d]pyrimidin-74-one] |
| 1.36 nM | 217.5 to 218 °C | CCCc1cn(C)c2c(=O)[nH]c(-c3cc(S(=O)(=O)N4CCN(CCCF)CC4)ccc3OCC)nc12 [Example 14, 52-(2-ethoxy-5-(4-(3-fluoropropyl)piperazinylpiperazin-1-ylsulfonyl)phenyl)-15-methyl-37-n-propyl-1,63,5-dihydro-7H4-pyrrolo[4,33,2-d]pyrimidin-74-one] |
| 2.23 nM | 182 to 182.5 °C | CCOc1ccc(S(=O)(=O)N2CCN(CCCF)CC2)cc1-c1nc2c(CC)cn(CC)c2c(=O)[nH]1 [Example 18, 52-(2-ethoxy-5-(4-(3-fluoropropyl)piperazinylpiperazin-1-ylsulfonyl)phenyl)-15-ethyl-37-ethyl-1,63,5-dihydro-7H4H-pyrrolo[4,33,2-d]pyrimidin-74-one] |
| 0.62 nM | 194 to 194.5 °C | CCOc1ccc(S(=O)(=O)N2CCN(CCCF)CC2)cc1-c1nc2c(CCCF)cn(CC)c2c(=O)[nH]1 [Example 26, 52-(2-ethoxy-5-(4-(3-fluoropropyl)piperazinylpiperazin-1-ylsulfonyl)phenyl)-15-ethyl-37(3-fluoropropyl)-1,63,5-dihydro-7H4H-pyrrolo-[4,33,2-d]pyrimidin-74-one] |
| 0.18 nM | 162 to 163 °C | CCCOc1ccc(S(=O)(=O)N2CCN(CCO)CC2)cc1-c1nc2c(CCCF)cn(CC)c2c(=O)[nH]1 [Example 30] |
| 0.33 nM | – | CCCOc1ccc(S(=O)(=O)N2CCN(CCO)CC2)cc1-c1nc2c(CCC)cn(CC)c2c(=O)[nH]1 [Example 31] |
| 0.49 nM | – | CCCOc1ccc(S(=O)(=O)N2CCN(CCO)CC2)cc1-c1nc2c(CCC)cn(C)c2c(=O)[nH]1 [Example 53, 52-(5-(4-(2-hydroxyethyl)piperazinylpiperazin-1-ylsulfonyl)-2-n-propoxyphenyl)-15-methyl-37-n-propyl-1,63,5-dihydro-7H4H-pyrrolo[4,33,2-d]pyrimidin-74-one] |
| 0.71 nM | 129 to 130.5 °C | CCCc1cn(C)c2c(=O)[nH]c(-c3cc(S(=O)(=O)N4CCC(CCC(=O)O)CC4)ccc3OCC)nc12 [Example 123, 52-(2-ethoxy-5-(4-(2-hydroxycarbonylethyl)piperidinylpiperidin-1-ylsulfonyl)phenyl)-15-methyl-37-n-propyl-1,63,5-dihydro-7H4H-pyrrolo[4,33,2-d]pyrimidin-74-one] |
| 0.27 nM | – | CCCOc1ccc(S(=O)(=O)N2CCC(CCC(=O)O)CC2)cc1-c1nc2c(CCC)cn(C)c2c(=O)[nH]1 [Example 124, 52-(5-(4-(2-hydroxycarbonylethyl)piperidinylpiperidin-1-ylsulfonyl)-2-n-propoxyphenyl)-15-methyl-37-n-propyl-1,63,5-dihydro-7H4H-pyrrolo[4,33,2-d]pyrimidin-74-one] |

| Structure (SMILES) | IC50 (rabbit platelet PDE V) | melting point |
| --- | --- | --- |
| CCCOc1ccc(S(=O)(=O)N2CCN(CCCF)CC2)cc1-c1nc2c(CCC)cn(C)c2c(=O)[nH]1 [Example 37, 52-(5-(4-(3-fluoropropyl)piperazinylpiperazin-1-ylsulfonyl)-2-n-propoxyphenyl)-15-methyl-37-n-propyl-1,63,5-dihydro-7H4H-pyrrolo[4,33,2-d]pyrimidin-74-one] | 0.64 nM | – |
| CCCc1cn(C)c2c(=O)[nH]c(-c3cc(S(=O)(=O)N4CCN(CCO)CC4)ccc3OCC)nc12 [Example 51, 52-(2-ethoxy-5-(4-(2-hydroxyethyl)piperazinylpiperazin-1-ylsulfonyl)phenyl)-15-methyl-37-n-propyl-1,63,5-dihydro-7H4H-pyrrolo[4,33,2-d]pyrimidin-74-one] | 2.06 nM | – |
